37 compounds from patent US8440654B2, “Thieno- and furo-pyrimidine modulators of the histamine H4 receptor” (Janssen Pharmaceutica NV, priority 2007, dated 2013) can be followed below.

Where a name gives a salt, the structure may show the parent alone.

The target of this assay is T1, human histamine H4 receptor (Homo sapiens, UniProt Q9H3N8).
T1 construct: expressed in transfected cells; host or cells: SK-N-MC cells or COS7 cells, transiently transfected with pH4R; membrane preparation
T1 sequence (Q9H3N8 whole entry): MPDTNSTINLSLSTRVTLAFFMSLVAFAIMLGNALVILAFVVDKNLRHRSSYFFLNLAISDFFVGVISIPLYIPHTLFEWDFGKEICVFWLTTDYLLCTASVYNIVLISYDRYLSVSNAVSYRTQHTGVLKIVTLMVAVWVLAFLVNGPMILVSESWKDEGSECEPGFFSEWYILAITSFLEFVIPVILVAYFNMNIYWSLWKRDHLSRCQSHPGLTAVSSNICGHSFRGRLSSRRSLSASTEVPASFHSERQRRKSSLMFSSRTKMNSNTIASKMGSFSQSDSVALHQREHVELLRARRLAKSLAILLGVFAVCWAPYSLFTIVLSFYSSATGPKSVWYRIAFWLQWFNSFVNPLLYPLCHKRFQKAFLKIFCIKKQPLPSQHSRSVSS
Briefly: Binding Assay on Recombinant Human Histamine H4 Receptor. The settings on record: competition binding with 3H-histamine, membranes of SK-N-MC or COS7 cells transfected with human H4R; average of results obtained. Here is the method:
Biological Methods: Binding Assay on Recombinant Human Histamine H4 Receptor.
SK-N-MC cells or COS7 cells were transiently transfected with pH4R and grown in 150 cm^2 tissue culture dishes. Cells were washed with saline solution, scraped with a cell scraper and collected by centrifugation (1000 rpm, 5 min). Cell membranes were prepared by homogenization of the cell pellet in 20 mM Tris-HCl with a polytron tissue homogenizer for 10 sec at high speed. Homogenate was centrifuged at 1000 rpm for 5 min at 4° C. The supernatant was then collected and centrifuged at 20,000×g for 25 min at 4° C. The final pellet was resuspended in 50 mM Tris-HCl. Cell membranes were incubated with ^3H-histamine (5-70 nM) in the presence or absence of excess histamine (10,000 nM). Incubation occurred at room temperature for 45 min. Membranes were harvested by rapid filtration over Whatman GF/C filters and washed 4 times with ice-cold 50 mM Tris HCl. Filters were then dried, mixed with scintillant and counted for radioactivity. SK-N-MC or COS7 cells expressing human histamine H4 receptor were used to measure the affinity of binding of other compounds and their ability to displace ^3H-ligand binding by incubating the above-described reaction in the presence of various concentrations of inhibitor or compound to be tested. For competition binding studies using ^3H-histamine, K values were calculated, based on an experimentally determined KD value of 5 nM and a ligand concentration of 5 nM, according to Y.-C.
“4-[(1S,4S)-2,5-Diazabi- cyclo]2.2.1-2-yl]hept-2-yl]- 6,7,8,9-tetrahydro[1]benzo- thieno[3,2-d]pyrimidin-2- amine [Example 35]”: the Ki (commonly the equilibrium dissociation constant of an inhibitor or competing ligand from its target) was 417 nM.

`CN[C@H]1CCN(c2nc(N)nc3c4c(sc23)CCCC4)C1` (single isomer, unassigned) [Example 31]: the Ki is 5 nM.

As to `CNC1CCN(c2nc(N)nc3c(C)csc23)C1` (stereo in doubt) [Example 12, 7-Methyl-4-[(3R)-3-(methylamino)pyrrolidin-1-yl]thieno[3,2-d]pyrimidin-2-amine], the Ki was 182 nM.

As to `CNC1CCN(c2nc(N)nc3c(Br)csc23)C1` (stereo in doubt) [Example 14, 7-Bromo-4-(3R)-3-(methyl-amino)pyrrolidin-1-yl-d]pyrimidin-2-amine tri-fluoroacetic acid salt], the inhibitory constant (Ki) worked out at 1050 nM.

With `CC(C)(C)c1cc2nc(N)nc(N3CCC(N)C3)c2s1` (stereo in doubt) [Example 18, 4-[(3R)-3-Aminopyrrolidin-1-yl]-6-tert-butylthieno[3,2-d]pyrimidin-2-amine trifluoroacetic acid salt], the Ki stood at 221 nM.

For `CNC1CCN(c2nc(N)nc3c4c(oc23)CCCC4)C1` (stereo in doubt) [Example 21, 4-[(3R)-3-(Methyl-amino)pyrrolidin-1-yl]-6,7,8,9-tetrahydro[1]benzo-furo[3,2-d]pyrimidin-2-amine trifluoro acid salt], the Ki turned out to be 3 nM.

With `CNC1CCN(c2ncnc3c4c(oc23)CCCC4)C1` (stereo in doubt) [Example 28, (3R)-N-Methyl-1-(6,7,8,9-tetrahydro[1]benzofuro[3,2-d]pyrimidin-4-yl)pyrrolidin-3-amine], the Ki was found to be 66 nM.

Regarding `CCNC1CCN(c2nc(N)nc3c4c(sc23)CCCC4)C1` (stereo in doubt) [Example 40, 4-[(3R)-3-(Ethyl-amino)pyrrolidin-1-yl]-6,7,8,9-tetrahydro[1]benzo-thieno[3,2-d]pyrimidin-2-amine trifluoroacetic acid salt], the Ki amounted to 503 nM.

For `CNC1CCN(c2nc(N)nc3c4c(sc23)CCCCC4)C1` (stereo in doubt) [Example 47, trifluoroacetic acid salt], the Ki was 5 nM.

On to `Nc1nc(N2CCC(N)C2)c2sc3c(c2n1)CCCC3` (stereo in doubt) [Example 56, 4-[(3R)-3-Aminopyrrolidin-1-yl]-6,7,8,9-tetrahy-dro[1]benzothieno[3,2-d]pyrimidin-2-amine trifluoracetic acid salt], for which the Ki amounted to 10 nM.

Take `CN1CCN(c2nc(N)nc3ccsc23)CC1` [Example 1, 4-(4-Methyl-piperazin-1-yl)-thieno[3,2-d]pyrimidin-2-ylamine]: the Ki was determined as 503 nM.

With `CN1CCN(c2nc(N)nc3c4c(sc23)CCCC4)CC1` [Example 2, 4-(4-Methyl-piperazin-1-yl)-6,7,8,9-tetrahydro-benzo[4,5]thieno[3,2-d]pyrimidin-2-ylamine], the Ki worked out at 13 nM.

Take `Nc1nc(N2CCNCC2)c2sc3c(c2n1)CCCC3` [Example 3, 4-piperazin-1-yl-6,7,8,9-tetrahydro-benzo[4,5]thieno[3,2-d]pyrimidin-2-ylamine]: the Ki came to 23 nM.

With `Nc1nc(N2C[C@H]3CCN[C@H]3C2)c2sc3c(c2n1)CCCC3` [Example 4, 4-[(3aR,6aR)-Hexahydropyrrolo[3,4-b]pyrrol-5(1H)-yl]-6,7,8,9-tetrahydro[1]benzothieno[3,2-d]pyrimidin-2-amine], the inhibition constant (Ki) was determined as 21 nM.

Turning to `CN1CCN(c2nc(N)nc3c4c(oc23)CCCC4)CC1` [Example 5, 4-(4-Methyl-piperazin-1-yl)-6,7,8,9-tetrahydro-benzo[4,5]furo[3,2-d]pyrimidin-2-ylamine], the Ki was determined as 8 nM.

Turning to `Nc1nc(N2CCNCC2)c2oc3c(c2n1)CCCC3` [Example 6, 4-piperazin-1-yl-6,7,8,9-tetrahydro-benzo[4,5]furo[3,2-d]pyrimidin-2-ylamine], the Ki came out at 5 nM.

For the compound `Nc1nc(N2C[C@H]3CCN[C@H]3C2)c2oc3c(c2n1)CCCC3` [Example 7, 4-[(3aR,6aR)-Hexahydropyrrolo[3,4-b]pyrrol-5(1H)-yl]-6,7,8,9-tetrahydro[1]benzofuro[3,2-d]pyrimidin-2-amine], the Ki was 3 nM.

With `CN1CCN(c2ncnc3c4c(oc23)CCCC4)CC1` [Example 8, 4-(4-Methyl-piperazin-1-yl)-6,7,8,9-tetrahydro-benzo[4,5]furo[3,2-d]pyrimidine], the Ki came to 53 nM.

As to `c1nc(N2CCNCC2)c2oc3c(c2n1)CCCC3` [Example 9, 4-piperazin-1-yl-6,7,8,9-tetrahydro-benzo[4,5]furo[3,2-d]pyrimidine], the Ki is 110 nM.

Consider `CN1CCN(c2ncnc3c4c(sc23)CCCC4)CC1` [Example 10, 4-(4-Methyl-piperazin-1-yl)-6,7,8,9-tetrahydro-benzo[4,5]thieno[3,2-d]pyrimidine], for which the Ki came to 132 nM.

As for `c1nc(N2CCNCC2)c2sc3c(c2n1)CCCC3` [Example 11, 4-piperazin-1-yl-6,7,8,9-tetrahydro-benzo[4,5]thieno[3,2-d]pyrimidine], the Ki worked out at 454 nM.

Regarding `Cc1csc2c(N3CCN(C)CC3)nc(N)nc12` [Example 13, 7-Methyl-4-(4-methyl-piperazin-1-yl)thieno-amine trifluoroacetic acid salt], the Ki turned out to be 574 nM.

Take `CN1CCN(c2nc(N)nc3cc(C(C)(C)C)sc23)CC1` [Example 15, 6-tert-Butyl-4-(4-methyl-piperazin-1-yl)thieno[3,2-d]pyrimidin-2-amine trifluoroacetic acid salt]: the Ki was 286 nM.

With `CN[C@H]1CCN(c2nc(N)nc3cc(C(C)(C)C)sc23)C1` [Example 16, trifluoroacetic acid salt], the inhibitory constant (Ki) is 71 nM.

For the compound `CC(C)(C)c1cc2nc(N)nc(N3CCNCC3)c2s1` [Example 17, 6-tert-Butyl-4-piperazin-1-ylthieno[3,2-d]pyrimidin-2-amine trifluoroacetic acid salt], the Ki was determined as 142 nM.

With `CC(C)(C)c1cc2nc(N)nc(N3CC4CCCNC4C3)c2s1` (stereo not shown) [Example 19, 6-tert-Butyl-4-(octahydro-6H-pyrrolo[3,4-b]pyridin-6-yl)thieno[3,2-d]pyrimidin-2-amine trifluoroacetic acid salt], the Ki worked out at 244 nM.

As to `Nc1nc(N2C[C@H]3CCCN[C@H]3C2)c2oc3c(c2n1)CCCC3` [Example 20, 4-[(4aR,7aR)-Octahydro-6H-pyrrolo[3,4-b]pyridin-6-yl]-6,7,8,9-tetra-hydro[1]benzofuro[3,2-d]pyrimidin-2-amine trifluoroacetic acid salt], the Ki amounted to 5 nM.

Consider `Nc1nc(N2CCCNCC2)c2oc3c(c2n1)CCCC3` [Example 22, 4-(1,4-Diazepan-1-yl)-6,7,8,9-tetrahydro[1]benzo-furo[3,2-d]pyrimidin-2-amine trifluoroacetic acid salt], for which the Ki is 3 nM.

On to `Nc1nc(N2CC(N)C2)c2oc3c(c2n1)CCCC3` [Example 23, 4-(3-Aminoazetidin-1-yl)-6,7,8,9-tetrahydro[1]benzo-furo[3,s-d]pyrimidin-2-amine trifluoroacetic acid salt], for which the Ki turned out to be 83 nM.

Take `Nc1nc(N2CC[C@@H](N)C2)c2oc3c(c2n1)CCCC3` [Example 24, 4-[(3R)-3-Aminopyrrolidin-1-yl-6,7,8,9-tetra-hydro[1]benzofuro[3,2-d]pyrimidin-2-aminetrifluoroacetic acid salt]: the Ki turned out to be 2 nM.

As for `NCCNc1nc(N)nc2c3c(oc12)CCCC3` [Example 25, N4-(2-Aminoethyl)-6,7,8,9-tetrahydro[1]benzofuro[3,2-d]pyrimidine-2,4-diamine trifluoroacetic acid salt], the Ki turned out to be 507 nM.

For the compound `Nc1nc(N2CC3CCC(C2)N3)c2oc3c(c2n1)CCCC3` [Example 26, 4-(3,8-Diazabi-cyclo[3.2.1]oct-3-yl)-6,7,8,9-tetrahydro[1]benzofuro[3,2-d]pyrimidin-2-amine], the Ki was determined as 32 nM.

As to `NCCNc1ncnc2c3c(oc12)CCCC3` [Example 27, N-(6,7,8,9-Tetra-hydro[1]benzofuro[3,2-d]pyrimidin-4-yl]ethane-1,2-diamine], the Ki was > 10000 nM.

For the compound `Nc1nc(N2C[C@H]3CCCN[C@H]3C2)c2sc3c(c2n1)CCCC3` [Example 32, 4-[(4aR,7aR)-Octahydro-6H-pyrrolo[3,4-b]pyridin-6-yl]-6,7,8,9-tetrahydro[1]benzo-thieno[3,2-,d]pyrimidin-2-amine], the inhibitory constant (Ki) is 2 nM.

As to `Nc1nc(N2C[C@H]3CNC[C@H]3C2)c2sc3c(c2n1)CCCC3` [Example 33], the Ki came to 390 nM.

`Nc1nc(N2CCC[C@H](N)C2)c2sc3c(c2n1)CCCC3` [Example 34, 4-[(3S)-3-Aminopiperidin-1-yl]-6,7,8,9-tetrahydro[1]ben-zothieno[3,2-d]pyrimidin-2-amine]: the Ki amounted to 123 nM.

Consider `Nc1nc(N2C[C@H]3C[C@@H]2CN3)c2sc3c(c2n1)CCCC3` [Example 36, 4-[(1R,4R)-2,5-Diazabicy-clo[2.2.1]hept-2-yl]-6,7,8,9-tetrahydro[1]benzothi-eno[3,2-d]pyrimidin-2-amine], for which the Ki was > 10000 nM.
